# Measurements from US10577382B2, “Fused heterocyclic compound” (TAKEDA PHARMACEUTICAL COMPANY LIMITED, priority 2016, dated 2020).
# Experiments:
# MDM4 protein = MDM4 protein amount in HCT116 cells (western blot); type: cell-based, human; conditions: 300 nM, 16 hours, relative to control group
# Experimental: (§1) 1000 μl (8,0000 cells/well) of a cell suspension of human colon adenocarcinoma cells HCT116 (purchased from ATCC) was seeded in a 12-well plate, and cultured at 37° C. for 2 days in a 5% CO2 gas incubator. The test compound solution was added to a final concentration of 300 nM, and the mixture was cultured for 16 hours. The plate was washed with PBS, a protein extract (10% glycerol, 1% sodium dodecyl sulfate, 62.5 mM Tris-HCl (pH: 7.5)) was then added to dissolve the cells, and the solution was treated at 95° C. for 5 minutes. Thereafter, the amount of protein was determined using BCA Protein Assay Kit (Thermo Fisher Scientific).
# (§2) The amount of the protein in each sample was adjusted, SDS-PAGE was then performed, and the protein was transferred to a PVDF membrane using an iBlot (registered trademark) gel transfer system (Invitrogen). […] The membrane was washed in the same procedure as described above, a phosphorylated CLK2 protein, a MDM4 protein, a p53 protein and a p21 protein each labeled with an antibody were then made chemiluminescent using ImmunoStar ZETA (Wako Pure Chemical Industries, Ltd.), and luminescence was detected with LAS-3000 Image Analyzer (Fujifilm Corporation). The luminescence intensity was determined using Multi Gauge Ver. 3.1 (Fujifilm Corporation), and quantified. […]
# p53 protein = experiment: p53 induction activity in HCT116 cells (western blot); type: cell-based, human; conditions: 300 nM, 16 hours, relative to control group
# Experimental: as §1, §2
# SK-MEL-28-Control cells = experiment: Growth inhibitory action on SK-MEL-28-Control cells (CellTiter-Glo); type: cell-based, human; conditions: 125 nM, 3 days
# Source text: (§3) Human MYC cDNA was inserted downstream of the TRE of a lentiviral vector (modified pTRIPZ: GE Healthcare) having a tetracycline responsive sequence (TRE) in the promoter region. The produced virus was infected with human malignant melanoma cells SK-MEL-28 (purchased from ATCC) to establish SK-MEL-28 cells (SK-MEL-28-MYC) inducing expression of MYC in the presence of doxycycline (Takara Bio Inc.) which is a tetracycline derivative. SK-MEL-28 cells (SK-MEL-28-Control) having an empty vector with only modified pTRIPZ were also established. 20 μL/well of 2.5 μg/mL doxycycline-containing medium was added to a 96-well plate, and 80 μl/well (1,000 cells/well) of a cell suspension was added, and cultured at 37° C. for 2 days in a 5% CO2 gas incubator. Thereafter, 100 μl of a 250 nM test compound solution was added (final concentration: 125 nM), and the mixture was further cultured for 3 days. 50 µl/well of a CellTiter-Glo™ Luminescent Cell Viability Assay reagent (Promega Corporation) was added to a 96-well plate, the amount of luminescence was measured by a luminometer, and the amount of remaining ATP was determined as a cell amount. The inhibition ratio (%) of cell growth by the test compound was calculated in accordance with the following expression. Inhibition ratio (%)=(1−(amount of luminescence of test compound)÷(amount of luminescence of control group))×100
# SK-MEL-28-MYC cells = experiment: Growth inhibitory action on MYC-induced SK-MEL-28-MYC cells (CellTiter-Glo); type: cell-based, human; conditions: 125 nM, 3 days
# Source text: as §3
# [1] = system: tumor derived from a myelogenous leukemia patient having a mutation in the SF3B1 gene; experiment: Antitumor action on tumor-bearing model derived from patient with acute myeloid leukemia having SF3B1 gene mutation; type: in vivo; conditions: 50 mg/kg orally twice a day on 2 days per week for 2 weeks; NOG female mice; tumor volume
# Experimental: A tumor derived from a myelogenous leukemia patient having a mutation in the SF3B1 gene was subcutaneously transplanted into mice to establish a clinical tumor model capable of undergoing in vivo passage. A fragment of the tumor was subcutaneously transplanted into a six-week-old NOG female mice (CLEA Japan, Inc.) with a trocar, the tumor diameter of the developed tumor was measured 52 days after the transplantation, and the tumor volume was calculated in accordance with the following expression. Tumor volume=long diameter×short diameter×short diameter×(½)
# Individuals with a tumor developed to a tumor volume of about 200 mm^3 were selected, and six mice per group were used for the experiment. A 0.5% methylcellulose solution (Wako Pure Chemical Industries, Ltd.) suspension of the test compound was orally administered at a dose of 50 mg/kg (10 mL/kg) twice a day on 2 days per week for 2 weeks. The tumor volume was chronologically measured on the day before the start of administration and every 3 to 4 days, the tumor diameter was finally measured on the day after completion of administration for 14 days, and the tumor volume was calculated.
# The tumor growth in the test compound administration group with respect to the control administration group was calculated as a T/C value in accordance with the following expression. […]
smiles,measurement,setting,value
"COc1ncnn2ccc(-c3cnc4nc(C)n(Cc5nnc([C@@H](C)F)o5)c4c3)c12 [Example 286, 1-((5-((1R)-1-fluoroethyl)-1,3,4-oxadiazol-2-yl)methyl)-6-(4-methoxypyrrolo[2,1-f][1,2,4]triazin-5-yl)-2-methyl-1H-imidazo[4,5-b]pyridine]",Residual ratio (MDM4),MDM4 protein,43.6%
same,Increase ratio (p53),p53 protein,620.7%
same,"Inhibition ratio (%) of cell growth, Doxycycline (+)",SK-MEL-28-Control cells; Doxycycline (+),35.7%
same,"Inhibition ratio (%) of cell growth, Doxycycline (−)",SK-MEL-28-Control cells; Doxycycline (−),34.4%
same,"Inhibition ratio (%) of cell growth, Doxycycline (+)","SK-MEL-28-MYC cells; Doxycycline (+), MYC induced",69.3%
same,"Inhibition ratio (%) of cell growth, Doxycycline (−)",SK-MEL-28-MYC cells; Doxycycline (−),24.7%
same,T/C (%),[1],−30.4%
